Data reported in patent US11221326B2 (TOPPAN PRINTING CO., LTD., priority 2016, dated 2022).

Test system: human lung cancer cell line NCI-H1975
Assay: Drug sensitivity by viable count analysis (CNT %), NCI-H1975 cells cultured with exosomes (Example 3)
Format: cell-based
Settings: Gefitinib 10 μM, 72 hours
Protocol: As a cell culture vessel, a Transwell cell culture insert (#3470 manufactured by Corning Incorporated) was used. The culture medium used was D-MEM (043-30085 manufactured by Wako Pure Chemical Corporation) containing 10 vol/vol % of bovine serum (EXO-FBS-50A-1 manufactured by System Biosciences, LLC), and 1 vol/vol % of penicillin-streptomycin (168-23191 manufactured by Wako Pure Chemical Corporation).
Drugs were each assessed three times using a final concentration of 10 μM of Gefitinib.
As exosomes derived from drug resistant cell line, ones recovered from the culture supernatant of human lung cancer cell line A549 (ATCC No.: CCL-185)) by ultracentrifugation were used. Assessments were conducted with respect to two conditions of 0 exosomes (no addition of the exosomes derived from the drug resistant cell line), and 1×10^9 exosomes.
In viable count analysis, drug sensitivity was assessed, as in Example 1, by using a trypan blue solution and by counting cells in the fluorescence mode of a cell counter (Countess II) manufactured by Life Technologies Inc. In the drug sensitivity assessment,CNT(cell viability)%=(viable count with addition of drug)/(viable count with addition of no drug)×100(%) was used as an assessment value.
As a reference, cells with an addition of 1×10^9 exosomes derived from the serum of a healthy person were also assessed.
(1) 2×10^4 NCI-H1975 cells were seeded in a Transwell cell culture insert.
(2) An appropriate amount of culture medium was added to the Transwell cell culture insert, followed by culturing in a CO2 incubator (37° C., 5% CO2) for 24 hours.
(1) An appropriate amount of culture medium was mixed with exosomes to prepare exosome medium solutions containing 0 exosomes (no addition of exosomes derived from a drug resistant cell line) and 1×10^9 exosomes.
(2) Each solution was added to the Transwell cell culture insert, followed by culturing in a CO2 incubator (37° C., 5% CO2) for 24 hours.
(1) An appropriate amount of the culture medium was mixed with a drug so as to have a final concentration of […]. […]

**Q.** Which “CNT (%) Average value” (0 exosomes) does the source give for COc1cc2ncnc(Nc3ccc(F)c(Cl)c3)c2cc1OCCCN1CCOCC1 [Gefitinib] here?
**A.** 59.9%

**Q.** And the “CNT (%) Average value” (1 × 10^9 exosomes derived from A549)?
**A.** 89.2%

**Q.** What about the “CNT (%) Average value” (1 × 10^9 exosomes derived from serum of healthy person) of the same molecule?
**A.** 57.7%
